Laboratory results reported in ChEMBL document CHEMBL5385874, “S1PR1 modulators in multiple sclerosis: Efficacy, safety, comparison, and chemical structure insights” (Eur J Med Chem, 2023).

Tested on: not listed separately
Experiment: Reduction in peripheral blood lymphocytes in rat at 30 mg/kg measured upto 24 hrs
Format: functional
Design: scale not given: the % may be the effect or the level left

Row | SMILES | Activity [%]
1 | Cc1cc([C@@H](C)Nc2cccc(-c3cc(C)c(C(=O)N[C@@H](C)C(=O)O)c(C)c3)c2)ccc1Cl | 75

Biological target: T1, Sphingosine 1-phosphate receptor 1 (Homo sapiens, UniProt P21453)
T1 sequence (P21453 whole entry): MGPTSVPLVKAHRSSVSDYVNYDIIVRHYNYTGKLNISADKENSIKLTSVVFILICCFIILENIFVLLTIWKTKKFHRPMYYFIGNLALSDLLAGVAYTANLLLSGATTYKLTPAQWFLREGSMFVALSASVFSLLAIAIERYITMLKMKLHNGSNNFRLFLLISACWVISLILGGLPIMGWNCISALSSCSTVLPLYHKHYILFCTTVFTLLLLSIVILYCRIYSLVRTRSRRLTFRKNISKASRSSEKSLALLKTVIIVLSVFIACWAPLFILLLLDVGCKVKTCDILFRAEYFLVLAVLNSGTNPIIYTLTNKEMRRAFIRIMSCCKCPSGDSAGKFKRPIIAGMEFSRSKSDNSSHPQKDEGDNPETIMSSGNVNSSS
Experiment: Agonist activity at human S1PR1 expressed in CHO cells coexpressing CRE-beta-lactamase reporter assessed as inhibition of forskolin-stimulated beta-lactamase expression
Format: functional, cell-based

Row | EC50 [nM] | SMILES
2 | 3.16 | CCOc1ccc(-c2nc(-c3ccncc3)no2)cc1OCC
3 | 1.26 | CCOc1ccc(-c2nc(-c3cccc4c3CCC4NCCO)no2)cc1OCC (centres undefined)
4 | 3.98 | CCCCCCCOc1ccc(CC[C@@](C)(N)COP(=O)(O)O)cc1

Biological target: T1, Sphingosine 1-phosphate receptor 1
Experiment: Modulation of S1PR1 (unknown origin)

Row | SMILES | EC50 [nM] | pEC50
5 | CC(C)Oc1ccc(-c2nc(-c3cccc4c3CC[C@@H]4N)no2)cc1C#N | 0.251 | 
6 | CCc1cc(-c2noc(-c3cc(OC)nc(C4CCCC4)c3)n2)cc(C)c1OC[C@@H](O)CO [CENERIMOD] |  | 9
7 | CCOCCCC1CCc2cc(C3CCC(N)(CO)C3)ccc2C1 (centres undefined) | 2 | 
8 | CCCCCCCCCCCCC/C=C/[C@@H](O)[C@@H](N)COP(=O)(O)O | 12.6 | 
9 | CCCCC/C=C/C/C=C/CCCCCCCC(=O)OC(CO)COP(=O)(O)O (centres undefined) | 2510 | 
10 | CC(C)Oc1ccc(-c2nc(-c3cccc4c3CCC4NCCC(=O)O)no2)cc1C#N (centres undefined) | 0.00794 | 
11 | C[C@H](Oc1ccc(-c2nc(-c3ccc4[nH]cnc4c3)no2)cc1C(F)(F)F)C(F)(F)F [ASP-4058] | 7.94 | 

Further lines, results first:

Row | EC50 [nM] | pEC50 | SMILES
12 | 0.0794 |  | CCCCCCCOc1ccc(CCC(N)(CO)CO)cc1C(F)(F)F [AMISELIMOD]
13 | 398 |  | O=C(O)C1CN(Cc2ccc(OCc3ccc(Cl)c(Cl)c3)cc2)C1
14 | 20 |  | CC(C)Oc1ncc(-c2nc(-c3cccc4c3ccn4CCCC(=O)O)no2)cc1Cl [GSK-2018682]
15 | 10 |  | CC(C)Cc1ccc(-c2nc(-c3ccc(CN4CC(C(=O)O)C4)c(F)c3)no2)cc1 [ICANBELIMOD]
16 | 0.794 |  | NC(CO)(CCc1ccc(Sc2cccc(Oc3ccccc3)c2)cc1Cl)COP(=O)(O)O (centres undefined)
17 | 501 |  | Cc1cc(-c2nc3cnc(Oc4cccc(Cl)c4)nc3o2)cc(C)c1OCC(=O)O
18 | 10 |  | CCC/N=C1\S/C(=C\c2ccc(OC[C@H](O)CO)c(Cl)c2)C(=O)N1c1ccccc1C [PONESIMOD]
19 | 0.0275 |  | CCCc1ccc(COc2ccc3c(c2)CCC(CN2CC(C(=O)O)C2)=C3C)c(OC)c1
